This passage reports IC50 results from patent US12384776B2, “Compounds and uses thereof” (Foghorn Therapeutics Inc., priority 2019, dated 2025).

Bounds are passed on as bounds.

The assay has as its target Nanoluciferase-BRD9 fusion protein (3×FLAG-NLuc-BRD9) in SYO-1 cells (Homo sapiens (Human), UniProt Q9H8M2). Description: SYO1 BRD9 NanoLuc degradation assay. The assay is classed as cell-based. Summed up: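 Degradation read as loss of NLuc signal after 6 h compound exposure (1 μM top final, 3-fold steps, 10 points, duplicates) in SYO-1 cells stably carrying 3×FLAG-NLuc-BRD9. Signal normalised between DMSO-treated cells and cells given 1 μM of a known BRD9 degrader.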

The mark [1] stands for this setting: SYO-1 cells expressing 3×FLAG-NLuc-BRD9, 6 hours incubation, top dose 1 μM.

Nanoluciferase-BRD9 fusion protein (3×FLAG-NLuc-BRD9) in SYO-1 cells, sequence (Q9H8M2 whole entry, the tested form may be a part): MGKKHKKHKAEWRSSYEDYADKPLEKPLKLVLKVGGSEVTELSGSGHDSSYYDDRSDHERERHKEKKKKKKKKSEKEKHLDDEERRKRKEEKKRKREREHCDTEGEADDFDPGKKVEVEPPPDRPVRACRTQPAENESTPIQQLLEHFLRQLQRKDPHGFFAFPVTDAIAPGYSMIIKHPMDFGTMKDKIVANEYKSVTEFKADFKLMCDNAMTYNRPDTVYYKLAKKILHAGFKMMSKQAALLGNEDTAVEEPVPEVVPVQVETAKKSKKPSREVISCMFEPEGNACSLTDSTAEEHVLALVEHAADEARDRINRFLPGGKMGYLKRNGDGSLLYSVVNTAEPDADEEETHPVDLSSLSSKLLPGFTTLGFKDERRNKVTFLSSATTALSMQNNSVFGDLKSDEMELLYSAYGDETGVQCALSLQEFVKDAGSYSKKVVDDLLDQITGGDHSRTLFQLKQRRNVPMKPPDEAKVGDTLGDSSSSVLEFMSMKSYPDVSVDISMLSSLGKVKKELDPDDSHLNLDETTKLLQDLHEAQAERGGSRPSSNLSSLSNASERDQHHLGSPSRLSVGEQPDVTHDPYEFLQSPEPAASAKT

The term IC50 denotes the concentration needed to halve the response being measured. Higher therefore signals weaker potency. In turn, `CNC(=O)N1CCc2c(-c3cc(OC)c(CN4CC(S(=O)(=O)NCCCCOc5ccc6c(c5)C(=O)N(C5CCC(=O)NC5=O)C6=O)C4)c(OC)c3)cn(C)c(=O)c2C1` (stereo not shown) [Compound D278] displayed an IC50 under setting [1] of 10 to 100 nM.

As for `[2H]C1([2H])N(CCC2CCN(c3ccc4c(c3)C(=O)N(C3CCC(=O)NC3=O)C4=O)CC2)C([2H])([2H])C([2H])([2H])N(Cc2c(OC)cc(-c3cn(C)c(=O)c4c3CCN(C(=O)NC)C4)cc2OC)C1([2H])[2H]` (stereo not shown) [Compound D105], the half-maximal inhibitory concentration (IC50) under setting [1] is less than 10 nM.

For `CNC(=O)N1CCc2c(c(-c3cc(OC)c(CN(C)CC45CC(C(=O)NCCCCCOc6cccc7c6C(=O)N(C6CCC(=O)NC6=O)C7=O)(C4)C5)c(OC)c3)cn(C)c2=O)C1` (stereo not shown) [Compound D294], under setting [1], the 50% inhibitory concentration (IC50) is no less than 1000 nM.

On to `CNC(=O)N1CCc2c(-c3cc(OC)c(CN4CCC(C5(CN6CCN(c7ccc8c(c7)C(=O)N(C7CCC(=O)NC7=O)C8=O)CC6)CC5)CC4)c(OC)c3)cn(C)c(=O)c2C1` (stereo not shown) [Compound D174], for which, under setting [1], the IC50 was less than 10 nM.

Where the note is “SYO-1 cells, 6 hours, Table 6C”, `COc1cc(-c2cn(C)c(=O)c3c2CCC3)cc(OC)c1CN1CC(C#Cc2ccc3c(c2)CN(C2CCC(=O)NC2=O)C3=O)C1` (stereo not shown) [Compound D369] had an IC50 of less than 10 nM.

With `CNC(=O)N1CCc2c(-c3cc(OC)c(CN4CCC(CCN5CCC6(CC5)CC(Oc5ccc7c(c5)C(=O)N(C5CCC(=O)NC5=O)C7=O)C6)CC4)c(OC)c3)cn(C)c(=O)c2C1` (stereo not shown) [Compound D251], the IC50 under setting [1] was less than 10 nM.

Consider `COc1cc(-c2cn(C)c(=O)c3c2CCN(C(=O)NCCCCCCCCNc2cccc4c2CN(C2CCC(=O)NC2=O)C4=O)C3)cc(OC)c1CN1CCC1` (stereo not shown) [Compound D89], for which the IC50 under setting [1] is less than 10 nM.

The compound `COc1cc(-c2cn(C)c(=O)c3c2CCN(C(=O)NCCCN2CCC(N4CCN(c5ccc6c(c5)C(=O)N(C5CCC(=O)NC5=O)C6=O)CC4)C2)C3)cc(OC)c1CN(C)C` (stereo not shown) [Compound D227] gave an IC50 under setting [1] of less than 10 nM.

Take `CNC(=O)N1CCc2c(-c3cc(OC)c(CN4CCN(CCC5CCN(c6c(F)c(F)c7c(c6F)C(=O)N(c6ccc(F)cc6F)C7=O)CC5)CC4)c(OC)c3)cn(C)c(=O)c2C1` [DD1]: the half-maximal inhibitory concentration (IC50) under setting [1] was less than 10 nM.

For `CNC(=O)N1CCc2c(-c3cc(OC)c(CNc4ccc5c(c4)C(=O)N(C4CCC(=O)NC4=O)C5=O)c(OC)c3)cn(C)c(=O)c2C1` (stereo not shown) [Compound D111], the IC50 under setting [1] was 10 to 100 nM.

`COc1cc(-c2cn(C)c(=O)c3c2CCN(C(=O)NCC2CC4(CCN(CCCCN5CCN(c6ccc7c(c6)C(=O)N(C6CCC(=O)NC6=O)C7=O)CC5)CC4)C2)C3)cc(OC)c1CN(C)C` (stereo not shown) [Compound D218] displayed an IC50 under setting [1] of 10 to 100 nM.

`CNC(=O)N1CCc2c(c(-c3cc(OC)c(CN(C)CC(=O)NCCOCCOc4cccc5c4C(=O)N(C4CCC(=O)NC4=O)C5=O)c(OC)c3)cn(C)c2=O)C1` (stereo not shown) [Compound D297] yielded a 50% inhibitory concentration (IC50) under setting [1] of no less than 1000 nM.

On to `COc1cc(-c2cn(C)c(=O)c3c2CCN(C(=O)NCCCN2CCC4C2CN4c2ccc4c(c2)C(=O)N(C2CCC(=O)NC2=O)C4=O)C3)cc(OC)c1CN(C)C` (stereo not shown) [Compound D260], for which the half-maximal inhibitory concentration (IC50) under setting [1] was in the range of 10 to 100 nM.

As for `CNC(=O)N1CCc2c(-c3cc(CN4CCC(CCN5CCN(c6ccc7c(c6)C(=O)N(C6CCC(=O)NC6=O)C7=O)CC5)CC4)cc(OC)c3)cn(C)c(=O)c2C1` (stereo not shown) [Compound D79], the 50% inhibitory concentration (IC50) under setting [1] was no less than 1000 nM.

In turn, `CNC(=O)N1CCc2c(-c3cc(OC)c(CN4CC(S(=O)(=O)NCCCOc5cccc6c5C(=O)N(C5CCC(=O)NC5=O)C6=O)C4)c(OC)c3)cn(C)c(=O)c2C1` (stereo not shown) [Compound D280] showed a half-maximal inhibitory concentration (IC50) under setting [1] of 100 to 1000 nM.

With `CNC(=O)N1CCc2c(-c3cc(OC)c(CN4CCC(CCN5CCC(c6ccc7c(c6)C(=O)N(C6CCC(=O)NC6=O)C7)CC5)CC4)c(OC)c3)cn(C)c(=O)c2C1` (stereo not shown) [Compound D73], the IC50 under setting [1] is less than 10 nM.

Consider `COc1cc(-c2cn(C)c(=O)c3c2CCN(C(=O)NCC2CC4(C2)CN(CCCOc2ccc5c(c2)C(=O)N(C2CCC(=O)NC2=O)C5=O)C4)C3)cc(OC)c1CN(C)C` (stereo not shown) [Compound D194], for which, under setting [1], the half-maximal inhibitory concentration (IC50) was 100 to 1000 nM.

The compound `CNC(=O)N1CCc2c(-c3cc(OC)c(CN4CCC5(CC4)CN(C(=O)CCCCOc4cccc6c4C(=O)N(C4CCC(=O)NC4=O)C6=O)CCO5)c(OC)c3)cn(C)c(=O)c2C1` (stereo not shown) [Compound D4, 5-(4-[[4-(5-[[2-(2,6-dioxopiperidin-3-yl)-1,3-dioxoisoindol-4-yl]oxy]pentanoyl)-1-oxa-4,9-diazaspiro[5.5]undecan-9-yl]methyl]-3,5-dimethoxyphenyl)-N,7-dimethyl-8-oxo-3,4-dihydro-1H-2,7-naphthyridine-2-carboxamide formic acid] gave a concentration for half-maximal inhibition (IC50) (SYO-1 cells, 6 hours, Table 6A) greater than 10 nM.

Under setting [1], `CNC(=O)N1CCc2c(-c3cc(OC)c(CN4CCC(CCN5CCN(c6ccc(-c7cnn(C8CCC(=O)NC8=O)c7)cc6)CC5)CC4)c(OC)c3)cn(C)c(=O)c2C1` (stereo not shown) [Compound D76] showed a half-maximal inhibitory concentration (IC50) of less than 10 nM.

For the compound `COc1cc(-c2cn(C)c(=O)c3c2CCN(C(=O)NCC(F)F)C3)cc(OC)c1CN(C)c1ccc2c(c1)C(=O)N(C1CCC(=O)NC1=O)C2` (stereo not shown) [Compound D307], the IC50 (SYO-1 cells, 6 hours, Table 6C) was less than 10 nM.

Under setting [1], `CNC(=O)N1CCc2c(-c3cc(OC)c(CN4CCC(CCN5CCN(c6ccn7c(=O)n(C8CCC(=O)NC8=O)nc7c6)CC5)CC4)c(OC)c3)cn(C)c(=O)c2C1` (stereo not shown) [Compound D77] registered an IC50 of 10 to 100 nM.

On to `COc1cc(-c2cn(C)c(=O)c3c2CCN(C(=O)NCCN(C)CCNc2cccc4c2C(=O)N(C2CCC(=O)NC2=O)C4=O)C3)cc(OC)c1CN(C)C` (stereo not shown) [Compound D6, 5-[4-[(dimethylamino)methyl]-3,5-dimethoxyphenyl]-N-[2-[(2-[[2-(2,6-dioxopiperidin-3-yl)-1,3-dioxoisoindol-4-yl]amino]ethyl)(methyl)amino]ethyl]-7-methyl-8-oxo-3,4-dihydro-1H-2,7-naphthyridine-2-carboxamide], for which, under “SYO-1 cells, 6 hours, Table 6A”, the half-maximal inhibitory concentration (IC50) is greater than 100 nM.

With `CNC(=O)N1CCc2c(-c3cc(OC)c(CN4CCC(CCN5CCC(c6ccc7c(c6)CN(C6CCC(=O)NC6=O)C7=O)CC5)CC4)c(OC)c3)cn(C)c(=O)c2C1` (stereo not shown) [Compound D68], the half-maximal inhibitory concentration (IC50) under setting [1] was less than 10 nM.

`CNC(=O)N1CCc2c(-c3cc(OC)c(CN4CCN(CCC5CCN(c6ccc7c(c6)C(=O)N(C6CCC(=O)NC6=O)C7=O)CC5)CC4C(F)F)c(OC)c3)cn(C)c(=O)c2C1` (stereo not shown) [Compound D104] registered an IC50 under setting [1] of less than 10 nM.

For `COc1cc(-c2cn(C)c(=O)c3c2CCN(C(=O)NC2CC4(C2)CN(CCOc2ccc5c(c2)C(=O)N(C2CCC(=O)NC2=O)C5=O)C4)C3)cc(OC)c1CN(C)C` (stereo not shown) [Compound D264], under setting [1], the 50% inhibitory concentration (IC50) is no less than 1000 nM.

With `COc1cc(-c2cn(C)c(=O)c3c2CCN(C(=O)NCC2CC4CN(CCCCN5CCN(c6ccc7c(c6)C(=O)N(C6CCC(=O)NC6=O)C7=O)CC5)CC4C2)C3)cc(OC)c1CN(C)C` (stereo not shown) [Compound D232], the IC50 under setting [1] was in the range of 10 to 100 nM.

`COc1cc(-c2cn(C)c(=O)c3c2CCN(C(=O)NCC2CC4(CCN(CCOc5ccc6c(c5)C(=O)N(C5CCC(=O)NC5=O)C6=O)CC4)CO2)C3)cc(OC)c1CN(C)C` (stereo not shown) [Compound D259]: the concentration for half-maximal inhibition (IC50) under setting [1] fell in the range of 10 to 100 nM.

Consider `COc1cc(-c2cn(C)c(=O)c3c2CCN(C(=O)NC2CC4CC2CN4CCCOc2ccc4c(c2)C(=O)N(C2CCC(=O)NC2=O)C4=O)C3)cc(OC)c1CN(C)C` (stereo not shown) [Compound D270], for which the IC50 under setting [1] is 100 to 1000 nM.

For `COc1cc(-c2cn(C)c(=O)c3c2CCN(C(=O)NCC2CC4CN(CCCOc5ccc6c(c5)C(=O)N(C5CCC(=O)NC5=O)C6=O)CC4C2)C3)cc(OC)c1CN(C)C` (stereo not shown) [Compound D265], under setting [1], the IC50 is 100 to 1000 nM.

Compound `CNC(=S)N1CCc2c(-c3cc(OC)c(CN4CCC(CCN5CCN(c6ccc7c(c6)CN(C6CCC(=O)NC6=O)C7=O)CC5)CC4)c(OC)c3)cn(C)c(=O)c2C1` (stereo not shown) [Compound D58] registered a half-maximal inhibitory concentration (IC50) under setting [1] of less than 10 nM.

Turning to `CNC(=O)N1CCc2c(-c3cc(OC)c(CN4CCC5(CC4)CN(CCN4CCN(c6ccc7c(c6)C(=O)N(C6CCC(=O)NC6=O)C7=O)CC4)CCO5)c(OC)c3)cn(C)c(=O)c2C1` (stereo not shown) [Compound D202], the IC50 under setting [1] lay in the range of 10 to 100 nM.

`COc1cc(-c2cn(C)c(=O)c3c2CCN(C(=O)NCCCCCNc2cccc4c2C(=O)N(C2CCC(=O)NC2=O)C4=O)C3)cc(OC)c1CN(C)C` (stereo not shown) [Compound D11, 5-(4-((dimethylamino)methyl)-3,5-dimethoxyphenyl)-N-(5-((2-(2,6-dioxopiperidin-3-yl)-1,3-dioxoisoindolin-4-yl)amino)pentyl)-7-methyl-8-oxo-3,4,7,8-tetrahydro-2,7-naphthyridine-2 (1H)-carboxamide formic acid] came in with an IC50 (SYO-1 cells, 6 hours, Table 6A) greater than 10 nM.

Compound `CNC(=O)N1Cc2c(-c3cc(OC)c(CN4CCC5(CC4)CN(c4ccc6c(c4)C(=O)N([C@@H]4CCC(=O)NC4=O)C6=O)C5)c(OC)c3)cn(C)c(=O)c2C1` [Compound D300] displayed a half-maximal inhibitory concentration (IC50) under setting [1] of less than 10 nM.

For `COc1cc(-c2cn(C)c(=O)c3c2CCC3)cc(OC)c1CN1CCC2(CC1)CN(c1cccc(N3CCC(=O)NC3=O)c1)C2` [Compound D375], the 50% inhibitory concentration (IC50) (SYO-1 cells, 6 hours, Table 6C) is no less than 1000 nM.

Consider `COc1cc(-c2cn(C)c(=O)c3c2CCN(C(=O)NCCN2CCC(OC4CCN(c5ccc6c(c5)C(=O)N(C5CCC(=O)NC5=O)C6=O)CC4)CC2)C3)cc(OC)c1CN(C)C` (stereo not shown) [Compound D186], for which the half-inhibitory concentration (IC50) under setting [1] lay in the range of 10 to 100 nM.

Compound `CNC(=O)N1CCc2c(-c3cc(OC)c(CN4[C@H](C)CN(CCC5CCN(c6ccc7c(c6)C(=O)N(C6CCC(=O)NC6=O)C7=O)CC5)C[C@@H]4C)c(OC)c3)cn(C)c(=O)c2C1` (stereo partly shown) [Compound D141] returned a half-inhibitory concentration (IC50) under setting [1] of less than 10 nM.

For the compound `CNC(=O)N1CCc2c(-c3cc(OC)c(CN4CCC(CN5Cc6cc7c(cc6C5)C(=O)N(C5CCC(=O)NC5=O)C7=O)CC4)c(OC)c3)cn(C)c(=O)c2C1` (stereo not shown) [Compound D180], under setting [1], the 50% inhibitory concentration (IC50) was less than 10 nM.

`CNC(=O)N1CCc2c(-c3cc(OC)c(CN4CCC(CCN(C)C5CCN(c6ccc7c(c6)C(=O)N(C6CCC(=O)NC6=O)C7=O)C5)CC4)c(OC)c3)cn(C)c(=O)c2C1` (stereo not shown) [Compound D197] yielded an IC50 under setting [1] of less than 10 nM.

The compound `CNC(=O)N1CCc2c(-c3cc(OC)c(CN4CCC(CCN5Cc6cc7c(cc6C5)C(=O)N(C5CCC(=O)NC5=O)C7=O)CC4)c(OC)c3)cn(C)c(=O)c2C1` (stereo not shown) [Compound D179] had a 50% inhibitory concentration (IC50) under setting [1] of less than 10 nM.

For the compound `COc1cc(-c2cn(C)c(=O)c3c2CCN(C(=O)NC2CC4(C2)CN(CCCCN2CCN(c5ccc6c(c5)C(=O)N(C5CCC(=O)NC5=O)C6=O)CC2)C4)C3)cc(OC)c1CN(C)C` (stereo not shown) [Compound D230], under setting [1], the IC50 is no less than 1000 nM.
